Test results: patent US11673890B2, “N1-pyrazolospiroketone acetyl-CoA carboxylase inhibitors” (Pfizer Inc., priority 2010, dated 2023)

How the values were obtained:
[1] = target: T1, recombinant human ACC1 (rhACC1) (Homo sapiens, UniProt Q13085, DEL44-44); assay: recombinant hACC1 Transcreener assay (ADP detection FP); type: biochemical; conditions: recombinant hACC1 Transcreener assay, 50 μM ATP, minimum of n=3; read-out: hACC1
T1 construct: infected with recombinant baculovirus containing full length human ACC1 cDNA; made in house; host or cells: SF9 insect cells (baculovirus)
Description: For example direct inhibition of ACC activity, for the compound of Formula (1) was determined using preparations of recombinant human ACC1 (rhACC1) and recombinant human ACC2 (rhACC2).
[1] Preparation of rhACC1. Two liters of SF9 cells, infected with recombinant baculovirus containing full length human ACC1 cDNA, were suspended in ice-cold lysis buffer (25 mM Tris, pH 7.5; 150 mM NaCl; 10% glycerol; 5 mM imidazole (EMD Bioscience; Gibbstown, N.J.); 2 mM TCEP (BioVectra; Charlottetown, Canada); Benzonase nuclease (10000 U/100 g cell paste; Novagen; Madison, Wis.); EDTA-free protease inhibitor cocktail (1 tab/50 mL; Roche Diagnostics; Mannheim, Germany). Cells were lysed by 3 cycles of freeze-thaw and centrifuged at 40,000×g for 40 minutes (4° C.). Supernatant was directly loaded onto a HisTrap FF crude column (GE Healthcare; Piscataway, N.J.) and eluted with an imidazole gradient up to 0.5 M over 20 column volumes (CV). ACC1-containing fractions were pooled and diluted 1:5 with 25 mM Tris, pH 7.5, 2 mM TCEP, 10% glycerol and direct loaded onto a CaptoQ (GE Healthcare) column and eluted with an NaCl gradient up to 1 M over 20 CV's. Phosphate groups were removed from purified ACC1 by incubation with lambda phosphatase (100 U/10 μM target protein; New England Biolabs; Beverly, Mass.) for 14 hours at 4° C.; okadaic acid was added (1 μM final concentration; Roche Diagnostics) to inhibit the phosphatase. Purified ACC1 was exchanged into 25 mM Tris, pH 7.5, 2 mM TCEP, 10% glycerol, 0.5 M NaCl by 6 hour dialysis at 4° C. Aliquots were prepared and frozen at −80° C.
[2] […] The final conditions for the assay were 50 mM HEPES, pH 7.2, 10 mM MgCl2, 7.5 mM tripotassium citrate, 2 mM DTT, 0.1 mg/mL BSA, 30 μM acetyl-CoA, 50 μM ATP, and 10 mM KHCO3. Typically, a 10 μl reaction was run for 120 min at 25° C., and 10 μl of Transcreener stop and detect buffer was added and the combination incubated at room temp for an additional 1 hour.
All of the examples in both assays were run with a minimum of n=3.

[2] = target: T2, recombinant human ACC2 (rhACC2) (Homo sapiens, UniProt O00763, V2141I); assay: recombinant hACC2 Transcreener assay (ADP detection FP); type: biochemical; conditions: 50 μM ATP, minimum of n=3
T2 construct: a full length Cytomax clone of ACC2 was purchased from Cambridge Bioscience Limited; made in house; host or cells: CHO cells (tetracycline-inducible, pcDNA5 FRT TO-TOPO)
Description: For example direct inhibition of ACC activity, for the compound of Formula (1) was determined using preparations of recombinant human ACC1 (rhACC1) and recombinant human ACC2 (rhACC2). Representative sequences of the recombinant human ACC1 and ACC2 that can be used in the assay are provided in FIG. 1 (SEQ ID NO. 1) and FIG. 2 (SEQ. ID NO. 2), respectively.
[3] Preparation of rhACC2. Human ACC2 inhibition was measured using purified recombinant human ACC2 (hrACC2). Briefly, a full length Cytomax clone of ACC2 was purchased from Cambridge Bioscience Limited and was sequenced and subcloned into PCDNA5 FRT TO-TOPO (Invitrogen, Carlsbad, Calif.). The ACC2 was expressed in CHO cells by tetracycline induction and harvested in 5 liters of DMEM/F12 with glutamine, biotin, hygromycin and blasticidin with 1 μg/mL tetracycline (Invitrogen, Carlsbad, Calif.). The conditioned medium containing ACC2 was then applied to a Softlink Soft Release Avidin column (Promega, Madison, Wis.) and eluted with 5 mM biotin. 4 mgs of ACC2 were eluted at a concentration of 0.05 mg/mL (determined by A280) with an estimated purity of 95% ([…]). The purified ACC2 was dialyzed in 50 mM Tris, 200 mM NaCl, 4 mM DTT, 2 mM EDTA, and 5% glycerol. The pooled protein was frozen and stored at −80° C., with no loss of activity upon thawing. For measurement of ACC2 activity and assessment of ACC2 inhibition, test compounds were dissolved in DMSO and added to the rhACC2 enzyme as a 5× stock with a final DMSO concentration of 1%.
[4] Measurement of human ACC2 inhibition. hACC2 was assayed in a Costar #3676 (Costar, Cambridge, Mass.) 384-well plate using the Transcreener ADP detection FP assay kit (Bellbrook Labs, Madison, Wis.) using the manufacturer's recommended conditions for a 50 uM ATP reaction. The final conditions for the assay were 50 mM HEPES, pH 7.2, 5 mM MgCl2, 5 mM tripotassium citrate, 2 mM DTT, 0.1 mg/mL BSA, 30 μM acetyl-CoA, 50 μM ATP, and 8 mM KHCO3. Typically, a 10 μl reaction was run for 50 min at 25° C., and 10 μl of Transcreener stop and detect buffer was added and the combination incubated at room temp for an additional 1 hour. The data was acquired on an Envision Fluorescence reader (Perkinelmer) using a 620 excitation Cy5 FP general dual mirror, 620 excitation Cy5 FP filter, 688 emission (S) and a 688 (P) emission filter.
The results using the recombinant hACC1 and recombinant hACC2 Transcreener assays described above are summarized in the table below for the Compounds of Formula (I) exemplified in the Examples above. All of the examples in both assays were run with a minimum of n=3.

T2 sequence (O00763 whole entry V2141I): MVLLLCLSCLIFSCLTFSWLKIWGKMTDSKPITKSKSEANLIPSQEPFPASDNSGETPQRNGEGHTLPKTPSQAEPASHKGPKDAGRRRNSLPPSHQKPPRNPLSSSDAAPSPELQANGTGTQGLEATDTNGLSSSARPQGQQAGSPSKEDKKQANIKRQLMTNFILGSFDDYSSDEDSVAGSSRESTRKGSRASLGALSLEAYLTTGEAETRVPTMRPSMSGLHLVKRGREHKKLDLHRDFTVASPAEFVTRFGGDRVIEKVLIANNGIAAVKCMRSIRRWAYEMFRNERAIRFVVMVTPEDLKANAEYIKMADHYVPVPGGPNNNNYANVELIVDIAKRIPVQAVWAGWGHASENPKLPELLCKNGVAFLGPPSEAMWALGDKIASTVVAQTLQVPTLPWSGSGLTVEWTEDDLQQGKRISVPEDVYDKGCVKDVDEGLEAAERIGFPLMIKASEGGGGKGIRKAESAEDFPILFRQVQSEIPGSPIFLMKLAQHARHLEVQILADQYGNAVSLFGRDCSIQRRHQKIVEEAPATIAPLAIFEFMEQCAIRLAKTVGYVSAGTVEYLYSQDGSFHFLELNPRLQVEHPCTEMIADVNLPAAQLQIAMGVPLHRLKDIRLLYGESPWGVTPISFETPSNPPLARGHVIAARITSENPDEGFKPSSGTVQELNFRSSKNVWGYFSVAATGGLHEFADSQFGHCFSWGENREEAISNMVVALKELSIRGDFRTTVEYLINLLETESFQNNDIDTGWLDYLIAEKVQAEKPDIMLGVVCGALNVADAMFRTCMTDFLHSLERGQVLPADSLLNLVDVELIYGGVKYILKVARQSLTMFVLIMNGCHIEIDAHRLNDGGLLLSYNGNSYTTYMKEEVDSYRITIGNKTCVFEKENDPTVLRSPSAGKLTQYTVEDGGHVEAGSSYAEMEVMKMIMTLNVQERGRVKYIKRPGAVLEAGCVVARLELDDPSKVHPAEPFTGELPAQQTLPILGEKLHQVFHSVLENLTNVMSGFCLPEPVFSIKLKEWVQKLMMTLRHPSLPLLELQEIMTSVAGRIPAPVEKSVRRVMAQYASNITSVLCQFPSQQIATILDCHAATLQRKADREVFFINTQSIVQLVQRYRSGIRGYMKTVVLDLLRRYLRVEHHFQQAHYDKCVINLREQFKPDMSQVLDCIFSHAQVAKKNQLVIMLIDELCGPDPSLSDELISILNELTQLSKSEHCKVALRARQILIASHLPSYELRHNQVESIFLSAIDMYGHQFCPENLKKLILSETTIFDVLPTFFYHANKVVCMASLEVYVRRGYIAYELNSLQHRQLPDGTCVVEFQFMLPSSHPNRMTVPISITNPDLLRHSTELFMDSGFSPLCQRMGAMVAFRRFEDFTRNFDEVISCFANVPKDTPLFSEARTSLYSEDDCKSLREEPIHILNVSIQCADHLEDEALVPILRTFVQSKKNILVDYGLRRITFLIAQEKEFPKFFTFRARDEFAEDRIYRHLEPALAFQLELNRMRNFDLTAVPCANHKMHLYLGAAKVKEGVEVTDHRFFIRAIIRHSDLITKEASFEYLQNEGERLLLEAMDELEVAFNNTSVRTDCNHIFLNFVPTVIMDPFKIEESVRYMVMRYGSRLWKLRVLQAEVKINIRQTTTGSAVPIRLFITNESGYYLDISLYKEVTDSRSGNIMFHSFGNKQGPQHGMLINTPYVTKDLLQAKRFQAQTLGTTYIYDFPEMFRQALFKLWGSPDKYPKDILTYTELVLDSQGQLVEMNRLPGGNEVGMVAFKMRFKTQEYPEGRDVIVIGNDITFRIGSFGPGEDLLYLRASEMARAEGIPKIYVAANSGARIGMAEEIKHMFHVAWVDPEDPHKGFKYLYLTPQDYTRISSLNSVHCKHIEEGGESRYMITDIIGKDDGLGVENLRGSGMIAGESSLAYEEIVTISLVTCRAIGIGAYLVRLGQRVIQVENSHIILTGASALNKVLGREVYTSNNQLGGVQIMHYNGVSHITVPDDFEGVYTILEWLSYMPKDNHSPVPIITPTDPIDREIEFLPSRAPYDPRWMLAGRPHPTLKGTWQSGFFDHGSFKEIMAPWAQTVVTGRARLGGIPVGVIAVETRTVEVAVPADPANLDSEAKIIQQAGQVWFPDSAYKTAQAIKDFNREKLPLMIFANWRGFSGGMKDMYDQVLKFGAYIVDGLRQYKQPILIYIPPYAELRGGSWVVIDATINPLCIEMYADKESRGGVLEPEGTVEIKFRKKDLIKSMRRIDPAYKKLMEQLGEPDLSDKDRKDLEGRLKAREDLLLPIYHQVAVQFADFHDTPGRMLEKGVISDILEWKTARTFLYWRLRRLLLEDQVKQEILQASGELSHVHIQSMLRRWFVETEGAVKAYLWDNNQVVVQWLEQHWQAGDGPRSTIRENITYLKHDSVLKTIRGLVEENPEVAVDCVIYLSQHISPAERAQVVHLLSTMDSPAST

SMILES | IC50 [1] [nM] | IC50 [2] [nM]
CC(C)n1ncc2c1C(=O)CC1(CCN(C(=O)c3cc4c(-c5cccc(C(=O)O)c5)nccc4[nH]3)CC1)C2 [Example 35, 3-{2-[(1-isopropyl-7-oxo-1,4,6,7-tetrahydro-1′H-spiro[indazole-5,4′-piperidin]-1′-yl)carbonyl]-1H-pyrrolo[3,2-c]pyridin-4-yl}benzoic acid] | 32.6 | 12.5
CC(C)n1ncc2c1C(=O)CC1(CCN(C(=O)c3cc4c(-c5cccc(C(=O)O)c5)ncnc4[nH]3)CC1)C2 [Example 36, 3-{6-[(1-isopropyl-7-oxo-1,4,6,7-tetrahydro-1′H-spiro[indazole-5,4′-piperidin]-1′-yl)carbonyl]-7H-pyrrolo[2,3-d]pyrimidin-4-yl}benzoic acid] | 44.4 | 29.3
CC(C)n1ncc2c1C(=O)CC1(CCN(C(=O)c3cc(-c4cccc(C(=O)O)c4)c4cc[nH]c4c3)CC1)C2 [Example 39, 3-{6-[(1-isopropyl-7-oxo-1,4,6,7-tetrahydro-1′H-spiro[indazole-5,4′-piperidin]-1′-yl)carbonyl]-1H-indol-4-yl}benzoic acid] | 29.1 | 29.8
CC(C)n1ncc2c1C(=O)CC1(CCN(C(=O)c3cc4c(-c5cccc(C(=O)O)c5)cncc4[nH]3)CC1)C2 [Example 40, 3-{2-[(1-isopropyl-7-oxo-1,4,6,7-tetrahydro-1′H-spiro[indazole-5,4′-piperidin]-1′-yl)carbonyl]-1H-pyrrolo[2,3-c]pyridin-4-yl}benzoic acid] | 10.2 | 6.1
CC(C)n1ncc2c1C(=O)CC1(CCN(C(=O)c3ccc(-c4ccc(C(=O)O)cc4)nc3NCC(F)(F)F)CC1)C2 [Example 42, 4-{5-[(1-isopropyl-7-oxo-1,4,6,7-tetrahydro-1′H-spiro[indazole-5,4′-piperidin]-1′-yl)carbonyl]-6-[(2,2,2-trifluoroethyl)amino]pyridin-2-yl}benzoic acid] | 39.9 | 30.4
CNc1ncc(-c2cccc(C(=O)O)c2)cc1C(=O)N1CCC2(CC1)CC(=O)c1c(cnn1C(C)C)C2 [Example 43, 3-{5-[(1-isopropyl-7-oxo-1,4,6,7-tetrahydro-1′H-spiro[indazole-5,4′-piperidin]-1′-yl)carbonyl]-6-(methylamino)pyridin-3-yl}benzoic acid] | 98.4 | 133
CC(C)n1ncc2c1C(=O)CC1(CCN(C(=O)c3ccc(-c4cccc(-c5nnn[nH]5)c4)cc3)CC1)C2 [Example 48, 1-isopropyl-1′-{[3′-(1H-tetrazol-5-yl)biphenyl-4-yl]carbonyl}-1,4-dihydrospiro[indazole-5,4′-piperidin]-7(6H)-one] | 59.5 | 28
CC(C)(C)n1ncc2c1C(=O)CC1(CCN(C(=O)c3ccc(-c4cccc(-c5nnn[nH]5)c4)cc3)CC1)C2 [Example 49, 1-tert-butyl-1′-{[3′-(1H-tetrazol-5-yl)biphenyl-4-yl]carbonyl}-1,4-dihydrospiro[indazole-5,4′-piperidin]-7(6H)-one] | 54.7 | 24.7

More lines, now with the values ahead:

IC50 [1] [nM] | IC50 [2] [nM] | SMILES
6.6 | 3.2 | CC(C)n1ncc2c1C(=O)CC1(CCN(C(=O)c3cc(-c4ccc(C(=O)O)cc4)c4cc[nH]c4c3)CC1)C2 [Example 37, 4-{6-[(1-isopropyl-7-oxo-1,4,6,7-tetrahydro-1′H-spiro[indazole-5,4′-piperidin]-1′-yl)carbonyl]-1H-indol-4-yl}benzoic acid]
33.5 | 19.9 | CC(C)n1ncc2c1C(=O)CC1(CCN(C(=O)c3cc4c(-c5ccc(C(=O)O)cc5)cncc4[nH]3)CC1)C2 [Example 38, 4-{2-[(1-isopropyl-7-oxo-1,4,6,7-tetrahydro-1′H-spiro[indazole-5,4′-piperidin]-1′-yl)carbonyl]-1H-pyrrolo[2,3-c]pyridin-4-yl}benzoic acid]
8.6 | 15.2 | CC(C)n1ncc2c1C(=O)CC1(CCN(C(=O)c3cc4ccc(-c5cccc(C(=O)O)c5)cc4[nH]3)CC1)C2 [Example 41, 3-{2-[(1-isopropyl-7-oxo-1,4,6,7-tetrahydro-1′H-spiro[indazole-5,4′-piperidin]-1′-yl)carbonyl]-1H-indol-6-yl}benzoic acid]
34.4 | 35.9 | CNc1ncc(-c2ccc(C(=O)O)cc2)cc1C(=O)N1CCC2(CC1)CC(=O)c1c(cnn1C(C)C)C2 [Example 44, 4-{5-[(1-isopropyl-7-oxo-1,4,6,7-tetrahydro-1′H-spiro[indazole-5,4′-piperidin]-1′-yl)carbonyl]-6-(methylamino)pyridin-3-yl}benzoic acid]
11.6 | 15.7 | CC(C)n1ncc2c1C(=O)CC1(CCN(C(=O)c3nc4cc(-c5ccc(C(=O)O)cc5)ccc4[nH]3)CC1)C2 [Example 46, 4-{2-[(1-isopropyl-7-oxo-1,4,6,7-tetrahydro-1′H-spiro[indazole-5,4′-piperidin]-1′-yl)carbonyl]-1H-benzimidazol-5-yl}benzoic acid]
32.5 | 25.7 | CC(C)n1ncc2c1C(=O)CC1(CCN(C(=O)c3nc4cc(-c5cccc(C(=O)O)c5)ccc4[nH]3)CC1)C2 [Example 47, 3-{2-[(1-isopropyl-7-oxo-1,4,6,7-tetrahydro-1′H-spiro[indazole-5,4′-piperidin]-1′-yl)carbonyl]-1H-benzimidazol-5-yl}benzoic acid]
